In patent publication US10034883B2, “Mesoporous dosage forms for poorly soluble drugs” (SIEGFRIED AG, priority 2013, dated 2018):

Assay: First trials dissolving rivaroxaban into Soluplus polymer
Format: physicochemical
Conditions: total API/Polymer ratio=0.1

maximum amount of rivaroxaban dissolvable into Soluplus: ≤ 10%
Structure (SMILES): O=C(NC[C@H]1CN(c2ccc(N3CCOCC3=O)cc2)C(=O)O1)c1ccc(Cl)s1 [rivaroxaban]
